From PMC6445242, “Novel tetrazole and cyanamide derivatives as inhibitors of cyclooxygenase-2 enzyme: design, synthesis, anti-inflammatory evaluation, ulcerogenic liability and docking study” (Journal of Enzyme Inhibition and Medicinal Chemistry, 2017)
Entries after “also recorded” stand apart in the source; their conditions may differ.

Columns and labels:
[1] = test system: gastric mucosa (ulcer number, ulcer index); assay: Ulcerogenic liability; assay type: in vivo, rat; conditions: 50 mg/kg oral, three successive days, rats; for Ulcer index: sum of % incidence, average severity and average number of ulcers
Protocol: Female wister rats (150–200 g) were used in this study. The animals were kept at controlled conditions (temperature 23 ± 2 °C, humidity 60 ± 10%) and a 12/12-h light/dark cycle with access to food and water. All procedures relating to animal care and treatments were performed according to protocols approved by the Research Ethical Committee of Faculty of Pharmacy Beni-Suef University (2014-Beni-Suef, Egypt).
[…]. Forty-eight rats were used in this study, divided into 12 groups and fasted for 18 h before drug administration. The control group received the vehicle (2.5% Tween 80). Other groups received test compounds, celecoxib or indomethacin at a dose of 50 mg/kg, then animals were fed after 2 h. Rats were given the specified dose orally for three successive days. Rats were sacrificed after 2 h of the last dose, then the stomach of each rat was removed and opened along the greater curvature for determination of the ulcer number and ulcer index according to the reported method.

[2] = test system: rat's gastric tissue; assay: Histopathological investigation of stomach; assay type: in vivo; conditions: haematoxylin and eosin, after ulcerogenic liability dosing
Protocol: Whole rats stomach were collected, selected stomach samples from each rat were fixed in 10% neutral buffered formalin for 48 h and routinely processed for paraffin embedding. 5 μm Thickness sections were obtained then stained with haematoxylin and eosin for histopathological evaluation.

[3] = test system: carrageenan-induced paw oedema; assay: Carrageenan-induced rat paw oedema; assay type: in vivo; conditions: 50 mg/kg oral; for %Inhibition of paw oedema, 1h / Paw thickness change mean ± SEM, 1h: 1 h after carrageenan; for Paw thickness change mean ± SEM, 1h / Paw thickness change mean ± SEM, 3h / Paw thickness change mean ± SEM, 5h: n = 4; for %Inhibition of paw oedema, 3h / Paw thickness change mean ± SEM, 3h: 3 h after carrageenan; for %Inhibition of paw oedema, 5h / Paw thickness change mean ± SEM, 5h: 5 h after carrageenan
Protocol: Female wister rats (150-200 g) were used in this study. The animals were kept at controlled conditions (temperature 23 ± 2 °C, humidity 60 ± 10%) and a 12/12-h light/dark cycle with access to food and water. All procedures relating to animal care and treatments were performed according to protocols approved by the Research Ethical Committee of Faculty of Pharmacy Beni-Suef University (2014-Beni-Suef, Egypt). The anti-inflammatory activity of the synthesised compounds was determined in vivo by […]-induced paw oedema method in rats[49]. Rats were divided into 21 groups of four animals each, and then, they were fasted overnight with free access to water before the experiment. Before any drug administration, thickness of the left hind paw of each rat was measured in millimetres. Group 1 served as a control and administered the vehicle (2.5% Tween 80).

[4] = molecular target: T1, ovine COX-2 (Ovis aries, UniProt P79208); assay: In vitro COX-2 inhibition assay (EIA kit, Cayman); conditions: for SI, COX-2 selectivity index (COX-1 IC50/COX-2 IC50): ovine enzymes; for IC50: IC50 COX-2, ovine COX-2, mean of two determinations
T1 sequence (P79208 17-603): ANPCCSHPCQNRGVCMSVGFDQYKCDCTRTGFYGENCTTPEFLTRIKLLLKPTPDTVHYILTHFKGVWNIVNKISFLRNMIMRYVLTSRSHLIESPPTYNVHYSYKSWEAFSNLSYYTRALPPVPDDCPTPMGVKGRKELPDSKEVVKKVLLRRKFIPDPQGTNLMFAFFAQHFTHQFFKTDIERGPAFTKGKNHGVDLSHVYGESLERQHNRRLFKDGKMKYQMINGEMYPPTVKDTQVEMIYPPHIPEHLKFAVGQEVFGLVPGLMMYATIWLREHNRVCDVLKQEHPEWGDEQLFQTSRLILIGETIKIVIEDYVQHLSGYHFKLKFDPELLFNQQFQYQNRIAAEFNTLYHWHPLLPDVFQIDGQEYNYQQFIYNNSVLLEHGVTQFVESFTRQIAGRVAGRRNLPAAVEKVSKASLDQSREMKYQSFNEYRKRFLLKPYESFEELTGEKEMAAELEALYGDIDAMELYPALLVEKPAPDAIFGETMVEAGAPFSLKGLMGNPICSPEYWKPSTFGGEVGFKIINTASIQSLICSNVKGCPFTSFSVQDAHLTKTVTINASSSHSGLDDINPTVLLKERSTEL
Protocol: (§1) The peroxidase activity of cyclooxygenase enzyme isoforms was measured using the COX activity assay kit. The ability of the test compounds to inhibit both ovine COX-1 and COX-2 enzymes was explored in vitro using a colorimetric enzyme immunoassay (EIA) kit. The appearance of oxidised N,N,N′,N′-tetramethyl-p-phenylenediamine (TMPD) was monitored at 590 nm. The kit includes isozyme-specific inhibitors for distinguishing COX-2 activity from that of COX-1.

[5] = test system: latency time of pain response; assay: Hot plate method (central analgesic activity); assay type: in vivo; conditions: 10 mg/kg oral, mice, hot plate 55 °C, after 60 min
Protocol: This method was used to evaluate the central analgesic activity by determination of the delay in the latency time of pain response. […] After 60 min, the animals were placed on a hot plate maintained at 55 ± 0.5 °C. The reaction time was recorded as the time taken by the animals to […] or lick the fore or hind paw or jump off the plate.

[6] = molecular target: T2, ovine COX-1 (Ovis aries, UniProt P05979); assay: In vitro COX-1 inhibition assay (EIA kit, Cayman)
T2 sequence (P05979 25-600): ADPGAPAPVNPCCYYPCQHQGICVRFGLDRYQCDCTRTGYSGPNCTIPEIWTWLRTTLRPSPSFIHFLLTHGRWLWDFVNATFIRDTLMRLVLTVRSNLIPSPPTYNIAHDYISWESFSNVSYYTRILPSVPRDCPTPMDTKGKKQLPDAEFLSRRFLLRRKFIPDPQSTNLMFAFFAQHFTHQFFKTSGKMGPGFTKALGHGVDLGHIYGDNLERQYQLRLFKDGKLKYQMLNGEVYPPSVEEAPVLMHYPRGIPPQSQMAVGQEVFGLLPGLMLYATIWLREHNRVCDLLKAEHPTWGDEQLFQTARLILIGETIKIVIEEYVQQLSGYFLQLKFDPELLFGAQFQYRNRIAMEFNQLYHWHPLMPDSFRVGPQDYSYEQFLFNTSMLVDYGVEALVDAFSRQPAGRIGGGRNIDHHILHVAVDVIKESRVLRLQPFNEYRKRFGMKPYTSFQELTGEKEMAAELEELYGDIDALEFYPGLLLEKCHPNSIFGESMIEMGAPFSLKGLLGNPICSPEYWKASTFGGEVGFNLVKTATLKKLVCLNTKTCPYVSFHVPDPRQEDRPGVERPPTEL
Protocol: as §1

SMILES | Average number of ulcers [1] | Ulcer index [1] | Histopathological findings in stomach [2] | %Inhibition of paw oedema, 1h [3] | Paw thickness change mean ± SEM, 1h [3] | %Inhibition of paw oedema, 3h [3] | Paw thickness change mean ± SEM, 3h [3] | %Inhibition of paw oedema, 5h [3] | Paw thickness change mean ± SEM, 5h [3] | melting point | SI, COX-2 selectivity index (COX-1 IC50/COX-2 IC50) [4] | Central analgesic activity (delay in latency time) [5] | IC50 [6] | IC50 [4]
Cc1ccc(-c2cc(C(F)(F)F)nn2-c2ccc(S(N)(=O)=O)cc2)cc1 [Celecoxib, reference compound] | 0.50 | 0.50 | thickening and hyalinosis of basement membrane with lymphocytic infiltration and minimal congested submucosal blood capillaries | 76% | 0.38 ± 0.03 mm | 66% | 0.58 ± 0.11 mm | 19% | 1.08 ± 0.13 mm | – | – | – | – | –
COc1cc(-c2cc(-c3ccc(-n4cnnn4)cc3)[nH]c(=O)c2C#N)cc(OC)c1OC [Compound 5f, 6-[4-(1H-Tetrazol-1-yl)phenyl]-4-(3,4,5-trimethoxyphenyl)-2-oxo-1,2-dihydropyridine-3-carbonitrile] | 1.25 | 1.25 | affect only muscular layer of the stomach by causing corrugation and hyalinosis in some muscle bundles and reach to coagulative necrosis | 79% | 0.33 ± 0.09 mm | 36% | 1.08 ± 0.10 mm | 30% | 0.93 ± 0.15 mm | > 300 °C | 46.07 | potent analgesic activities | 6.45 µM | –
COc1ccc(-c2cc(-c3ccc(-n4cnnn4)cc3)nc(N)c2C#N)cc1OC [Compound 4c, 6-[4-(1H-Tetrazol-1-yl)phenyl]-2-amino-4-(3,4-dimethoxyphenyl)nicotinonitrile] | 1.75 | 1.75 | mucous degeneration in gastric glandular epithelium reach to coagulative necrosis | – | 0.83 ± 0.15 mm | 58% | 0.70 ± 0.11 mm | 8% | 1.23 ± 0.11 mm | 230 to 232 °C | 42.02 | – | 16 µM | 0.38 µM
N#Cc1c(-c2ccccc2)cc(-c2ccc(-n3cnnn3)cc2)[nH]c1=O [Compound 5a, 6-[4-(1H-Tetrazol-1-yl)phenyl]-2-oxo-4-phenyl-1,2-dihydropyridine-3-carbonitrile] | 0.75 | 1.25 | all layers of stomach were more or less normal; also recorded: most preferable compound with minimal drug effect on tissue | 61% | 0.61 ± 0.08 mm | 54% | 0.63 ± 0.18 mm | 61% | 0.53 ± 0.09 mm | 281 to 283 °C | 39.38 | – | 7.09 µM | 0.18 µM
COc1cc(C2CC(c3ccc(-n4cnnn4)cc3)=NN2c2ccc(S(C)(=O)=O)cc2)cc(OC)c1OC (centres unmarked) [Compound 8b] | 0.75 | 0.75 | massive destruction of localised area of epithelium with formation of an erosion associated with hyalinosis and necrosis of muscular layer | 71% | 0.45 ± 0.10 mm | 48% | 0.88 ± 0.09 mm | 38% | 0.83 ± 0.17 mm | 241 to 243 °C | 35.18 | potent analgesic activities | 3.87 µM | –
COc1cc(C2CC(c3ccc(-n4cnnn4)cc3)=NN2c2ccc(S(N)(=O)=O)cc2)cc(OC)c1OC (centres unmarked) [Compound 9b, 4-{3-[4-(1H-Tetrazol-1-yl)phenyl]-5-(3,4,5-trimethoxyphenyl)-4,5-dihydro-1H-pyrazol-1-yl)benzenesulphonamide] | 0.25 | – | Mucous degeneration of glandular epithelium of gastric mucosa, and lymphocytic infiltration and mild congestion in submucosa | 75% | 0.40 ± 0.11 mm | 40% | 1.00 ± 0.16 mm | 12% | 1.18 ± 0.20 mm | – | – | – | 7.37 µM | 0.21 µM
COc1ccc(C2CC(c3ccc(-n4cnnn4)cc3)=NN2c2ccc(S(C)(=O)=O)cc2)cc1OC (centres unmarked) [Compound 8a, 1-{4-[5-(3,4-Dimethoxyphenyl)-1-(4-(methanesulphonyl)phenyl]-4,5-dihydro-1H-pyrazol-3-yl)phenyl}-1H-tetrazole] | 1.50 | – | some areas of glandular epithelium were more or less normal associated with sever congested blood capillaries and eosinophilic infiltrations in submucosa | 71–75% | – | 52% | 0.89 ± 0.19 mm | 15% | 1.13 ± 0.11 mm | – | – | potent analgesic activities | 8.67 µM | 0.32 µM
